According to patent US7351709B2, “Estrogen receptor ligands” (Wyeth, priority 2004, dated 2008):
Where two headings read alike, the source gives them in different places.

Tests used:
ERα [1] = target: T1, ERα (Homo sapiens, UniProt P03372); assay: Creatine kinase (CK) assay in ERα infected HAECT-1 cells; type: cell-based; conditions: for ER/CK % E2: efficacy relative to the maximal stimulation observed with E2
T1 construct: expressed in transfected cells; host or cells: HAECT-1 cells infected with Ad5-wt-ER adenovirus
T1 sequence (P03372 1-595): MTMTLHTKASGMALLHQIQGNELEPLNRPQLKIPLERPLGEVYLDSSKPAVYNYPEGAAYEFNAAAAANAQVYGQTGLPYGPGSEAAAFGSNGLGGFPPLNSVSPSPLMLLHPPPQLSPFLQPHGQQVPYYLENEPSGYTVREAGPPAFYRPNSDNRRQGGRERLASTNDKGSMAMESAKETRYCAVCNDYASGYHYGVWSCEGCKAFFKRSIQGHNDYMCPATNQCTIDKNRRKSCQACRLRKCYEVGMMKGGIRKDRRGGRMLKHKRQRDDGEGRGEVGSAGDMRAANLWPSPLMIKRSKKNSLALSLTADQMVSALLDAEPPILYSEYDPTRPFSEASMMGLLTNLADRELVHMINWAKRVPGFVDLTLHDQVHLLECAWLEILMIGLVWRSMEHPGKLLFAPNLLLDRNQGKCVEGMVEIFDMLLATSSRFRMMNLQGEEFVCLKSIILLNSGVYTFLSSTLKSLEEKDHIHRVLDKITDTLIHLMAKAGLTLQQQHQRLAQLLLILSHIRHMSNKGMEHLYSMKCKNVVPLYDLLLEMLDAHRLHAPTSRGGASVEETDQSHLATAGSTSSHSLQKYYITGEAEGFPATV
Procedure: (§1) ERα infected HAECT-1 cells or control cells were thawed, diluted 42× in warm EBM-BSA, plated into 96-well plates at 0.1 ml/well and incubated for 4 h at 34° C. Test compounds were added to the cells as 2× stocks in EBM-BSA containing 2 ng/ml IL-1β (R&D Systems) and plates were returned to the incubator (34° C.). After 15-20 h, 100 μl aliquots of media were removed from the cells and assayed for IL-6 content using a BioSource human IL-6 ELISA Kit. Cells were subsequently washed with 300 μl of Dulbecco's phosphate buffered saline and lysed in 50 μl of Cell Culture Lysis Reagent (Promega). Creatine kinase was determined from the rate of increase in A340 following addition of 100 μl of CK assay reagent (Sigma, cat. No 47-10) to the remainder of the cell lysate.
(§2) For IC50 and EC50 calculations, mean IL-6 or CK values versus log10 of the compound concentration were fitted to a four parameter logistic equation. The IC50/EC50 value, ‘Hill slope’, upper and lower limits of the curve were iteratively estimated.

ERα [2] = target: T1, ERα; assay: IL-6 assay: inhibition of IL-1β induced IL-6 expression in ERα infected HAECT-1 cells; type: cell-based; conditions: for IC50: Ad5-wt-ER infected HAECT-1 cells, IL-1β stimulated, IL-6 by ELISA; for ER/IL-6 % E2: efficacy relative to the maximal inhibition observed with E2
Procedure: as §1, §2

[3] = Ad5-wt-ER infected HAECT-1 cells, creatine kinase in cell lysate

Compound | EC50 (ERα [1]; [3]) [µM] | ER/CK % E2 (ERα [1]) [% E2] | IC50 (ERα [2]) [nM] | ER/IL-6 % E2 (ERα [2]) [% E2] | ER/CK EC50 (nM) (ERα [1]; [3]) | EC50 (ERα [1]; cells of the EC50 column printed in uM, read-out: ER/CK EC50) [µM]
CC[C@H]1C(=O)N(CC)c2cc(F)ccc2N1S(=O)(=O)c1ccc(O)cc1 [Example 30, (3S)-1,3-Diethyl-7-fluoro-4-[(4-hydroxyphenyl)sulfonyl]-3,4-dihydroquinoxalin-2(1H)-one] | 0.043 | 9 | 738 | 63 | – | –
CC[C@@H]1C(=O)N(CC)c2cc(F)ccc2N1C(=O)c1ccc(O)cc1 [Example 3, (3R)-1,3-Diethyl-7-fluoro-4-(4-hydroxybenzoyl)-3,4-dihydroquinoxalin-2(1H)-one] | 0.103 | 29 | 72 | 104 | – | –
CC[C@H]1C(=O)N(CC)c2ccc(F)cc2N1S(=O)(=O)c1ccc(O)cc1 [Example 26, (3S)-1,3-Diethyl-6-fluoro-4-[(4-hydroxyphenyl)sulfonyl]-3,4-dihydroquinoxalin-2(1H)-one] | – | – | 339 | 81 | inactive | –
CC[C@@H]1C(=O)N(C)c2cc(F)ccc2N1C(=O)c1ccc(O)cc1 [Example 1, (3R)-3-Ethyl-7-fluoro-4-(4-hydroxybenzoyl)-1-methyl-3,4-dihydroquinoxalin-2(1H)-one] | 0.089 | 16 | 74 | 99 | – | –
CC[C@@H]1C(=O)N(C)c2cc(F)ccc2N1C(=O)c1cccc(O)c1 [Example 4, (3R)-3-Ethyl-7-fluoro-4-(3-hydroxybenzoyl)-1-methyl-3,4-dihydroquinoxalin-2(1H)-one] | 0.126 | 19 | 520 | 57 | – | –
CC[C@@H]1C(=O)N(C)c2ccc(F)cc2N1C(=O)c1ccc(O)cc1O [Example 19, (3R)-4-(2,4-Dihydroxybenzoyl)-3-ethyl-6-fluoro-1-methyl-3,4-dihydroquinoxalin-2(1H)-one] | 0.05 | 44 | 5.4 | 92 | – | –
CC[C@H]1C(=O)N(C)c2ccc(F)cc2N1S(=O)(=O)c1ccc(O)cc1 [Example 25, (3S)-3-Ethyl-6-fluoro-4-[(4-hydroxyphenyl)sulfonyl]-1-methyl-3,4-dihydroquinoxalin-2(1H)-one] | – | 35 | 681 | 108 | – | > 3
